Data taken from patent EP2197883B1, “Catecholamine derivative useful for the treatment of parkinson's disease” (H. Lundbeck A/S, priority 2007, dated 2009).

Tests used:
[1] = man, after oral dosing; cited from earlier work
PD patients = conditions: intravenous (IV); cited from earlier work
[2] = system: mouse model of severe dopamine depletion; experiment: Superiority model; format: in vivo; conditions: mice
Text: Both Apomorphine and L-DOPA stimulate D1 and D2-like dopamine receptors.

SMILES	oral bioavailability [1] [%]	antiparkinson efficacy (PD patients)	reversal of motility deficits / restoration of locomotion [2]
CCCc1cc2c(s1)CN[C@@H]1CCc3cc(OC(C)=O)c(OC(C)=O)cc3[C@@H]21 [Adrogolide]	~4	comparable to that of L-DOPA	–
CN1CCc2cccc3c2[C@H]1Cc1ccc(O)c(O)c1-3 [Apomorphine]	–	–	able to reverse motility deficits
N[C@@H](Cc1ccc(O)c(O)c1)C(=O)O [L-DOPA, (levo)-3,4-dihydroxy phenylalanine]	–	–	able to reverse motility deficits
